Assay results: publication PMC11040670, “Mechanistic and Kinetic Insights into Cellular Uptake of Biomimetic Dinitrosyl Iron Complexes and Intracellular Delivery of NO for Activation of Cytoprotective HO-1” (JACS Au, 2024)
Marks after values point to notes of the source that are not given here.

Key:
deoxyMb = test: Direct transfer of NO to deoxyMb yielding MbNO (UV–vis); type: biochemical; conditions: deoxyMb 5 μM/Cys 200 μM, generated [(NO)2Fe(SR)(SCys)]n−, phosphate buffer (pH 7.4), anaerobic
Method: After addition of 30 μL of 500 μM stock solution of DNIC–COOH (in DMSO) to a 4 mL quartz cuvette containing 5 μM metMb and 200 μM Cys in 3 mL of 25 mM PBS (pH 7.4), UV–vis spectra for this mixture solution were measured every 30 min. Transformation of […] into MbNO was achieved after reaction for 4 h based on the complete shift of UV–vis absorption bands from (410, 502, and 629) nm to (419, 548, and 578) nm.
Reactions of (a) 5 μM of DNIC–COOMe with 5 μM of metMb in the presence of 200 μM of Cys, (b) 5 μM of DNIC–COOH/DNIC–COOMe with 5 μM of deoxyMb in the presence of 200 μM of Cys, and (c) 5 μM of DNIC–COOH/DNIC–COOMe with 5 μM of metMb in the presence of 50 mg/mL BSA were performed under a similar manner.

N2a = test: Whole-cell EPR: cellular uptake and intracellular formation/decomposition of mononuclear DNIC in N2a; type: cell-based, mouse; conditions: for tmax for cellular uptake and intracellular transformation (whole-cell EPR): normoxia, 100 μM DNIC–COOH or 10 μM DNIC–COOMe
Method: Cellular uptake of DNIC–COOH and intracellular formation/decomposition of mononuclear DNICs in MSC/N2a/HCEC cells were investigated using EPR spectroscopy. Briefly, cells were seeded into two (or one) 100 mm dish(es) at a density of 2 × 10^6 cells/dish and incubated at 37 °C overnight. On the next day, cells were treated with 100 μM of DNIC–COOH (or 100 μM of DNIC–COOH to N2a and 75 μM of DNIC–COOH to HCEC) and incubated for 0, 0.5, 1, 2, 3, 4, 8, and 24 h, respectively. After removal of the supernatant solution, cells were washed with DPBS before addition of 1 mL of trypsin (0.05%)/EDTA (0.53 mM) and incubation for 5 min at 37 °C. After the obtained cell suspension solutions from two 100 mm dishes were combined and centrifuged at 100g for 5 min, the supernatant was removed before addition of 100 μL of αMEM to DNIC-treated MSC (or MEM to DNIC-treated N2a and HSFM to DNIC-treated HCEC). This solution was then transferred into EPR quartz tube and frozen in N2(l) before the EPR measurements. For each measured EPR spectrum, double integration was executed to obtain the integrated EPR intensity under each condition. Moreover, time-dependent decay of integrated EPR signal intensity after treatment of DNIC–COOH was fit to pseudo-first-order kinetics in order to determine the intracellular half-life for EPR-active mononuclear DNIC. Three independent experiments were executed to measure the average half-life for intracellular decomposition of EPR-active mononuclear DNIC after treatment with DNIC–COOH at 37 °C. On the other hand, at the time point with maximum integrated EPR signal intensity, spin quantitation of intracellular EPR-active DNICs was performed using mononuclear DNIC [PPN][(NO)2Fe(S5)] as a standard according to the methodology used in the previous work.[50] Cellular uptake of DNIC–COOMe (2.5 μM to MSC, 10 μM to N2a, or 1 μM to HCEC) and intracellular formation/decomposition of EPR-active mononuclear DNICs were investigated using EPR spectroscopy in a similar manner.
Studies of cellular uptake mechanisms were investigated using EPR spectroscopy in combination with pretreatments of alternative inhibitors. After the MSC cells were seeded into two (or one) 100 mm dish(es) at a density of 2 × 10^6 cells/dish and incubated at 37 °C overnight, sequential treatments of 50 μM of NEM for 0.5 h and 100 μM of DNIC–COOH for 2 h were performed before the treated MSC cells were collected for EPR measurement following the procedure described above. […]

HMOX1 gene = test: Real-time PCR of HMOX1 gene in MSC; type: cell-based, human; conditions: at 3 h, 100 μM DNIC–COOH or 2.5 μM DNIC–COOMe
Method: After treatment of (1) 100 μM of DNIC–COOH to MSC, (2) 100 μM of DNIC–COOH to N2a, (3) 75 μM of DNIC–COOH to HCEC, (4) 2.5 μM of DNIC–COOMe to MSC, (5) 10 μM of DNIC–COOMe to N2a, and (6) 1 μM of DNIC–COOMe to HCEC, respectively, the total RNA of the treated cells was extracted using TRIzol Reagent (Thermo Fisher Scientific) in order to assess the time-dependent change in the mRNA level of HO-1. After the synthesis of complementary DNA with the High-Capacity Reverse Transcription Kit, qPCR was conducted using Power SYBR Green PCR Master Mix with the StepOnePlus Real-Time PCR System (Thermo Fisher Scientific). […] The relative mRNA levels of target genes were determined by a comparative threshold cycle method and normalized to that of RPL13A (or GAPDH). The mRNA level of HO-1 in the MSC, N2a, and HCEC cells, respectively, that received the (1) sequential treatments of 1H-[1,2,4]oxadiazolo-[4,3-a]quinoxalin-1-one (ODQ, 10 μM for 1 h) and DNIC–COOH (100 μM in MSC for 3 h, 100 μM in N2a for 10 h, and 75 μM in HCEC for 6 h) or (2) cotreatment of 2-phenyl-4,4,5,5-tetramethylimidazoline-1-oxyl-3-oxide (PTIO, 100 μM in MSC, 200 μM in N2a, and 100 μM in HCEC) and DNIC–COOH (100 μM in MSC for 3 h, 100 μM in N2a for 10 h, and 75 μM in HCEC for 6 h) was also evaluated under a similar procedure.

SMILES | reaction time for complete conversion of deoxyMb into MbNO (deoxyMb) | reaction time for complete conversion of deoxyMb into MbNO (deoxyMb; listed as DNIC-COOMe) [h] | relative whole-cell EPR signal intensity at gav = 2.03 (control = 100%) (N2a; N2a, native FBS replaced with 5% NEM-treated FBS) [%] | tmax for cellular uptake and intracellular transformation (whole-cell EPR) (N2a; N2a) [h] | relative whole-cell EPR signal intensity at gav = 2.03 (control = 100%) (N2a; N2a, pretreatment of NEM 0.5 h, then DNIC–COOMe 0.5 h, reduction) [%] | activation of HMOX1 gene (HMOX1 gene) [fold] | reaction time for complete conversion of deoxyMb into MbNO (deoxyMb; listed as DNIC-COOH) [h] | relative whole-cell EPR signal intensity at gav = 2.03 (control = 100%) (N2a; CPZ-treated N2a) [%] | relative whole-cell EPR signal intensity at gav = 2.03 (control = 100%) (N2a; MβCD-treated N2a) [%]
COC(=O)CC[SH]1[Fe]([N]=O)([N]=O)[SH](CCC(=O)OC)[Fe]1([N]=O)[N]=O (stereo not drawn) [DNIC–COOMe, [(NO)2Fe(μ-SCH2CH2COOCH3)2Fe(NO)2]] | 2.0 ^f h | 2.0 | 116.2 ± 33.6 | 0.5 | 20.1 ± 9.7 | 18.8 ± 2.3 | – | – | –
O=[N][Fe]1([N]=O)[SH](CCC(=O)O)[Fe]([N]=O)([N]=O)[SH]1CCC(=O)O (stereo not drawn) [DNIC–COOH, [(NO)2Fe(μ-SCH2CH2COOH)2Fe(NO)2]] | 3.5 ^f h | – | – | 2 | – | 49.5 ± 2.9 | 3.5 | 77.6 ± 22.5 | 81.7 ± 18.2
